In US7544479B2, “Method for identifying MLK inhibitors for treatment of neurological conditions” (priority 1998, dated 2009):

B1: SEK1 (K54R): dominant negative mutant of SEK1, known to specifically block JNK activation; expressed from a vector (protein, UniProt P45985 2-399, looked up, variant K54R)
Dual specificity …: AAPSPSGGGGSGGGSGSGTPGPVGSPAPGHPAVSSMQGKRKALKLNFANPPFRSTARFTLNPNPTGVQNPHIERLRTHSIESSGKLKISPEQHWDFTAEDLKDLGEIGRGAYGSVNKMVHKPSGQIMAVKRIRSTVDEKEQKQLLMDLDVVMRSSDCPYIVQFYGALFREGDCWICMELMSTSFDKFYKYVYSVLDDVIPEEILGKITLATVKALNHLKENLKIIHRDIKPSNILLDRSGNIKLCDFGISGQLVDSIAKTRDAGCRPYMAPERIDPSASRQGYDVRSDVWSLGITLYELATGRFPYPKWNSVFDQLTQVVKGDPPQLSNSEEREFSPSFINFVNLCLTKDESKRPKYKELLKHPFILMYEERAVEVACYVCKILDQMPATPSSPMYVD
modifications: expressed from vector; dominant negative

Tests used:
JNK = JNK activity in HN33 cell lysates (GST-c-Jun phosphorylation, Western blot); assay type: cell-based, rat; details: glutamate 250 μM or kainic acid 200 μM, room temperature, 15 minutes
HN33 cells [1] = details: for induction of apoptotic cell death of HN33 cells: glutamate 250 μM or kainic acid 200 μM
NMDA receptor = details: rats given glutamate, quinolinic acid or kainic acid; cited from earlier work
HN33 cells [2] = test: TUNEL assay of apoptosis induced by expression of APP-C-100 in HN33 cells; assay type: cell-based, rat; details: 48 hours after transfection
Excerpt: To determine the role of activation of the SEK1-JNK signal transduction pathway in Alzheimer's diseases, a cDNA fragment encoding the full-length (Kang, J., et al., Nature, 325:733-736 (1987)) or the last C-terminal 100 amino acid of amyloid precursor protein (APP) was inserted into pcDNA1 and the resulting plasmid was designated as APP-C-100. HN33 cells (60% of confluence) was transfected with pcDNA1 (control), wild-type APP, APP-C-100 by using lipofectin (Boehringer Mannheim) according to manufacture instruction. Thirty μl of lipofectin/50 mm plate was used in all transfection experiments. Twelve to seventy-two hours after transfection, HN33 cells were fixed with 4% paraformaldehyde and permeabilized with 0.1% of Triton X-100. […] TUNEL negative cells were counted under light microscope.
To further determine the role of activation of the JNK activation in Alzheimer's diseases, HN33 cells were transfected with pcDNA1, wild-type APP expression vector, or mutant SEK1 expression vector using lipofectin (Boehringer Mannheim) according to manufacture instruction. […] TUNEL negative cells (living cells) were counted.
To determine further the role of activation of the MLK activation in Alzheimer's diseases, HN33 cells were co-transfected with pcDNA1, wild-type expression vector, with kinase dead MLK2 expression vector. […] TUNEL negative cells (living cells) were counted.

HN33 cells [3] = test: TUNEL assay of apoptosis induced by expression of MLK2 in HN33 cells; assay type: cell-based, rat; details: co-transfection with wild-type MLK2; 48 hours after transfection
Excerpt: To examine whether expression of MLK2 induces neuronal cell death, HN33 cells were transfected with pRK5CMV, wild-type or kinase dead MLK2 expression vector using lipofectin (Boehringer Mannheim) according to manufacture instruction. Forty-eight hours after transfection, cells were fixed and stained with TUNEL, as described above. TUNEL negative cells (living cells) were counted.
To determine whether the role of the SEK1-JNK signal transduction pathway in neuronal cell death induced by expression of MLK2, HN33 cells were co-transfected with pEBG+pRK5CMV (control), wild-type SEK1 expression vector+wild-type MLK2 expression vector, or dominant negative mutant SEK1 (K54R) expression vector+wild-type MLK2 expression vector. Forty-eight hours after transfection, cells were fixed and stained with TUNEL. TUNEL negative cells (living cells) were counted.

Row | Molecule | JNK activity (JNK) | induction of apoptotic cell death of HN33 cells (HN33 cells [1]) | other results
1 | C=C(C)[C@H]1CN[C@H](C(=O)O)[C@H]1CC(=O)O [kainic acid] | induced elevation of the JNK activity | apoptotic cell death | –
2 | N[C@@H](CCC(=O)O)C(=O)O [glutamate] | induced elevation of the JNK activity | apoptotic cell death | –
3 | C[C@]12N[C@H](Cc3ccccc31)c1ccccc12 [MK-801] | – | – | induction of c-Jun expression and neuronal apoptosis (NMDA receptor): blocked
4 | B1 | – | – | apoptosis induced by expression of APP-C-100, effect of co-expression (HN33 cells [2]): blocks; apoptosis induced by MLK expression, effect of co-expression (HN33 cells [3]): attenuated; apoptosis induced by glutamate or kainate receptor activation, effect of expression (HN33 cells [1]; 250 μM glutamate or 200 μM kainate for six hours, 48 hours after transfection): blocks
